Consider 17 compounds from US7101681B1, “Nuclear hormone receptor drug screens” (Amgen, Inc., priority 1997, dated 2006).

For one test, the system named is RXR. Kind of test: Fluorescent polarization assay, labeled peptide sensor binding to RXR. Conditions: for Sensors Activity: Fluorescent Polarization Assay RXR: graded symbols O, I to IV, key not given. Here is the method:
(§1) I. High-Throughput In Vitro Fluorescence Polarization Assay
(§2) • Sensor: Rhodamine-labeled L1X1X2L2L3 peptide (final conc.=1–5 nM) • Receptor: Glutathione-S-transferase/nuclear hormone receptor ligand binding domain fusion protein (final conc.=100–200 nM) • Buffer: 10 mM HEPES, 10 mM NaCl, 6 mM magnesium chloride, pH 7.6 Protocol: • 1. Add 90 microliters of peptide/NHR mixture to each well of a 96-well microtiter plate. • 2. Add 10 microliters of test compound per well. • 3. Shake 5 min and within 5 minutes determine amount of fluorescence polarization by using a Fluorolite FPM-2 Fluorescence Polarization Microtiter System (Dynatech Laboratories, Inc). II. Conformational Sensor—ELISA Format Assay Buffer and Solution Preparation: […]

The subject of another test is LXR. As to the kind of experiment: Fluorescent polarization assay, labeled peptide sensor binding to LXR. Conditions: for Sensors Activity: Fluorescent Polarization Assay LXR: graded symbols O, I to IV, key not given. Here is the method: as §1, §2
The target in the next test is T1, PPARγ (Homo sapiens, UniProt P37231).
T1 sequence (P37231 238-503 limits assumed): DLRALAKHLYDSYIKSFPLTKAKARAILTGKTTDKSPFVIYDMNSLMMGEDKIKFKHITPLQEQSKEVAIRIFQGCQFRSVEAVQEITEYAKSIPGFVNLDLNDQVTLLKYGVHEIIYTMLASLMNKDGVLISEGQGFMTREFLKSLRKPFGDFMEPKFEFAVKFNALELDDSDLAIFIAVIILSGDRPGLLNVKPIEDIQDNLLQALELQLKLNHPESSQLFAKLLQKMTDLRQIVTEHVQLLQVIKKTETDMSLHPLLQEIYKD
Kind of test: Fluorescent polarization assay, labeled peptide sensor binding to PPARγ. Conditions: graded symbols O, I to IV, key not given. Here is the method:
as §1, §2

Take “9-cis-retinoic acid [reference compound]”: the “RXR receptor affinity for labeled peptide sensor” value in the test on RXR (ligand at 1 μM, dose response, FIG. 3) is recorded as “increases”. With `CC(C)C(=O)CC[C@@H](C)[C@H]1CC[C@H]2[C@@H]3CC=C4C[C@@H](O)CC[C@]4(C)[C@H]3CC[C@]12C` [24-ketocholesterol, reference compound], the “LXR receptor affinity for labeled peptide sensor” value in the test with LXR (ligand at 2 μM, dose response, FIG. 2) was “increases”. For the compound “TUK-1371: labeled peptide sensor R-ILHRLLQE, SRC-1 689–696”, the “Sensors Activity: Fluorescent Polarization Assay PPARγ” value with PPARγ is listed as “I+”. Turning to “TUK-1373: labeled peptide sensor R-G-ILHRLLQE, SRC-1 689–696”, the “Sensors Activity: Fluorescent Polarization Assay RXR” value in the test on RXR is reported as “II+”.

With “TUK-1376: labeled peptide sensor F-G-VTLLQLLLG, RIP-140 496–506”, the “Sensors Activity: Fluorescent Polarization Assay LXR” value in the test with LXR is given as “II+”. For “TUK-1380: labeled peptide sensor F-LLQQLLTE (SEQ ID NO:12), SRC-1 1434–1441 (fluorescent label)”, the “Sensors Activity: Fluorescent Polarization Assay LXR” value with LXR is reported as “II+”. Turning to “TUK-1381: labeled peptide sensor R-LLQQLLTE, SRC-1 1434–1441”, in the test with PPARγ, the “Sensors Activity: Fluorescent Polarization Assay PPARγ” value is listed as “I+”. Moreover, the “Sensors Activity: Fluorescent Polarization Assay RXR” value with RXR is “I+”. Regarding “TUK-1382: labeled peptide sensor F-G-LLQQLLTE, SRC-1 1434–1441”, in the test on LXR, the “Sensors Activity: Fluorescent Polarization Assay LXR” value is listed as “II+”.

Take “TUK-1385: labeled peptide sensor R-KLVQLLTTT, SRC-1 632–640”: the “Sensors Activity: Fluorescent Polarization Assay RXR” value with RXR is recorded as “II+”. Also, in the test with LXR, the “Sensors Activity: Fluorescent Polarization Assay LXR” value was “II+”.

For the compound “TUK-1390: labeled peptide sensor F-LLRYLLDK (SEQ ID NO:3), SRC-1 748–755 (fluorescent label)”, the “Sensors Activity: Fluorescent Polarization Assay RXR” value in the test with RXR is on record as “II+”. Take “TUK-1391: labeled peptide sensor R-LLRYLLDK, SRC-1 748–755”: the “Sensors Activity: Fluorescent Polarization Assay PPARγ” value in the test with PPARγ is “II+”. As for “TUK-1392: labeled peptide sensor F-G-LLRYLLDK, SRC-1 748–755”, in the test on LXR, the “Sensors Activity: Fluorescent Polarization Assay LXR” value is given as “II+”. As for “TUK-1393: labeled peptide sensor R-G-LLRYLLDK, SRC-1 748–755”, the “Sensors Activity: Fluorescent Polarization Assay RXR” value with RXR is “II+”. Further, in the test on LXR, the “Sensors Activity: Fluorescent Polarization Assay LXR” value is listed as “III+”. For the compound “TUK-1453: labeled peptide sensor R-LLRYLLD (SEQ ID NO:4), SRC-1 748–754 (R label)”, the “Sensors Activity: Fluorescent Polarization Assay RXR” value in the test on RXR is reported as “I+”. On to “TUK-1455: labeled peptide sensor R-LRYLLD (SEQ ID NO:5), SRC-1 749–754 (R label)”, for which the “Sensors Activity: Fluorescent Polarization Assay PPARγ” value in the test with PPARγ is “I+”. As to “TUK-1473: labeled peptide sensor R-QLLRYLLDKD (SEQ ID NO:9), SRC-1 747–756 (label R)”, the “Sensors Activity: Fluorescent Polarization Assay PPARγ” value with PPARγ was “I+”. For the same compound, the “Sensors Activity: Fluorescent Polarization Assay RXR” value in the test on RXR was “I+”. For “TUK-1557: labeled peptide sensor R-ILKKLLQE (SEQ ID NO:17), synthetic sequence peptide (label R)”, the “Sensors Activity: Fluorescent Polarization Assay LXR” value in the test with LXR is “III+”.
